{"source": "patent US20060116401A1", "about": "“Antibacterial compounds” (AstraZeneca AB, priority 2002, published 2006)", "format_in_all_cases": "cell-based", "key": {"[1]": {"test_system": "Staphylococcus aureus MSQS (methicillin sensitive and quinolone sensitive)", "test": "MIC, agar dilution, staphylococci (MSQS strain)", "conditions": "10^4 CFU/spot, 37° C., 24 hours", "description": "(§1) The following results were obtained on a standard in-vitro test system The activity is described in terms of the minimum inhibitory concentration (MIC) determined by the agar-dilution technique with an inoculum size of 10^4 CFU/spot. Typically, compounds are active in the range 0.01 to 256 μg/ml.\n(§2) Staphylococci were tested on agar, using an inoculum of 10^4 CFU/spot and an incubation temperature of 37° C. for 24 hours—standard test conditions for the expression of methicillin resistance."}, "[2]": {"test_system": "Haemophilus influenzae", "test": "MIC, fastidious Gram negative organisms in Mueller-Hinton broth", "conditions": "Mueller-Hinton broth with hemin and NAD, aerobic, 24 hours, 37° C.", "description": "as §1\n(§3) Streptococci and enterococci were tested on agar supplemented with 5% defibrinated horse blood, an inoculum of 10^4 CFU/spot and an incubation temperature of 37° C. in an atmosphere of 5% carbon dioxide for 48 hours—blood is required for the growth of some of the test organisms. Fastidious Gram negative organisms were tested in Mueller-Hinton broth, supplemented with hemin and NAD, grown aerobically for 24 hours at 37° C., and with an innoculum of 5×10^4 CPU/well."}, "[3]": {"test_system": "Moraxella catarrhalis", "test": "MIC, fastidious Gram negative organisms in Mueller-Hinton broth", "conditions": "Mueller-Hinton broth with hemin and NAD, aerobic, 24 hours, 37° C.", "description": "as §1, §3"}, "[4]": {"test_system": "Staphylococcus aureus MRQR (methicillin resistant and quinolone resistant)", "test": "MIC, agar dilution, staphylococci (MRQR strain)", "conditions": "10^4 CFU/spot, 37° C., 24 hours", "description": "as §1, §2"}, "[5]": {"test_system": "Enterococcus faecium", "test": "MIC, agar with 5% defibrinated horse blood, enterococci", "conditions": "agar + 5% horse blood, 10^4 CFU/spot, 37° C., 5% carbon dioxide, 48 hours", "description": "as §1, §3"}, "[6]": {"test_system": "Streptococcus pneumoniae", "test": "MIC, agar with 5% defibrinated horse blood, streptococci", "conditions": "agar + 5% horse blood, 10^4 CFU/spot, 37° C., 5% carbon dioxide, 48 hours", "description": "as §1, §3"}, "[7]": {"test_system": "Linezolid Resistant Streptococcus pneumoniae", "test": "MIC, agar with 5% defibrinated horse blood, linezolid resistant streptococci", "conditions": "agar + 5% horse blood, 10^4 CFU/spot, 37° C., 5% carbon dioxide, 48 hours", "description": "as §1, §3"}}, "data": [{"molecule": "O=C1O[C@@H](Cn2ccnn2)CN1c1ccc(-c2ccc(C3=NOC(CO)C3)c(F)c2)c(F)c1", "note": "(stereo partly drawn) [Example 4, (5R)-3-{2,3′-Difluoro-4′-[5-(hydroxymethyl)-4,5-dihydroisoxazol-3-yl]-1,1′-biphenyl-4-yl}-5-(1H-1,2,3-triazol-1-ylmethyl)-1,3-oxazolidin-2-one]", "values": [{"measurement": "MIC", "setting": "[1]", "value": 0.5, "unit": "mg/L"}, {"measurement": "MIC", "setting": "[2]", "value": 4, "unit": "mg/L"}, {"measurement": "MIC", "setting": "[3]", "value": 0.5, "unit": "mg/L"}, {"measurement": "MIC", "setting": "[4]", "value": 0.5, "unit": "mg/L"}, {"measurement": "MIC", "setting": "[5]", "value": 0.5, "unit": "mg/L"}, {"measurement": "MIC", "setting": "[6]", "value": 0.13, "unit": "mg/L"}, {"measurement": "MIC", "setting": "[7]", "value": 1, "unit": "mg/L"}]}]}
